{
  "source": "patent US9353171B2",
  "about": "(The Administrators of the Tulane Educational Fund, priority 2011, dated 2016)",
  "key": {"[1]": {"tested_on": "human renal proximal tubule epithelial cells (HK-2 human kidney cells)", "test": "Iohexol-induced inhibition of proliferation / loss of viable HK-2 cells, MTT conversion", "format": "cell-based", "conditions": "for loss of viable human renal proximal tubule epithelial cells caused by iohexol: various concentrations", "experimental": "(§1) The HK-2 human kidney cells were cultured in Keratinocyte-Serum Free Medium supplemented with recombinant epidermal growth factor and bovine pituitary extract. […] Each value represents the mean plus/minus the standard error of four determinations. **p<0.01 and *p<0.05 compared to the cells treated only with iohexol."}, "[2]": {"tested_on": "human renal proximal tubule epithelial cells (HK-2 human kidney cells)", "test": "Urografin-induced injury (cytotoxicity) of HK-2 cells, lactate dehydrogenase activity in the culture medium", "format": "cell-based", "conditions": "for Urografin-induced cell death of human renal proximal tubule epithelial cells: various concentrations added to the medium", "experimental": "as §1, with “Urografin.” for “iohexol.”\nThe HK-2 human kidney cells were cultured in Keratinocyte-Serum Free Medium supplemented with recombinant epidermal growth factor and bovine pituitary extract. […] Each value represents the mean plus/minus the standard error of eight determinations. **p<0.01 and *p<0.05 compared to the cells treated only with Urografin. The ID numbers in the figure correspond to the SEQ ID NO numbers in the Sequence Listing. ID1=PACAP38, ID2=PACAP27, ID4=[D-Ser^2]PACAP38, ID5=[Aib^2]PACAP38, ID6=[D-Ser^2,Lys^38-palmitoyl]PACAP38, ID8=[Ala^22]PACAP38, ID10=[Lys^34]PACAP38, ID38=N-acetyl[Pip^3]PACAP38, ID39=[Pip^3,Ala^14,17,Aib^16,28,Lys^34, D-Lys^38]PACAP38, and ID40=[Pip^3,Ala^15,17,Aib^16,28,Lys^34,D-Lys^38]PACAP38.\n(§2) At the highest dose tested, PACAP38 reduced the cell death caused by Urografin by more than 70%."}, "[3]": {"conditions": "rat, in vivo, iv; cited from earlier work"}, "[4]": {"tested_on": "male homozygous eNOS-deficient mice", "test": "Mouse model of contrast-induced nephropathy (Urografin i.v.), serum and kidney biomarkers", "format": "in vivo", "conditions": "72 h", "experimental": "(§3) Male homozygous eNOS-deficient mice were given a single intravenous injection of Urografin at a dose of 1.85 g iodine/kg body weight. The mice were deprived of water for 24 hours before the start of the experiment. Twenty micrograms of PACAP38 were given intraperitoneally 1 hour before the injection of Urografin and an additional dose was given 12 hours later. The control group of mice was injected intravenously with the same volume of saline as for the injections of Urografin and PACAP38 on the same schedule. The mice were euthanized 72 hours after the injection of Urografin. The concentration of cystatin C in serum was determined with an enzyme-linked immunosorbent assay. Each value represents the mean plus/minus the standard error of five or eight determinations. **p<0.01 compared to the group treated with Urografin and saline.\nas §3, with “control” for “control group of”, “mice were” for “mice was”, “Urografin. Quantification” for “Urografin. The concentration”, “of mRNA levels for KIM-1” for “of cystatin C in serum”, “was made by real-time reverse transcriptase polymerase chain reaction analyses.” for “was determined with an enzyme-linked immunosorbent assay.”\nas §3, with “control” for “control group of”, “mice were” for “mice was”, “Urografin. Quantification” for “Urografin. The concentration”, “of mRNA levels for netrin-1” for “of cystatin C in serum”, “was made by real-time reverse transcriptase polymerase chain reaction analyses.” for “was determined with an enzyme-linked immunosorbent assay.”\nas §3, with “control” for “control group of”, “mice were” for “mice was”, “Urografin. Quantification” for “Urografin. The concentration”, “of mRNA levels for TNF-α” for “of cystatin C in serum”, “was made by real-time reverse transcriptase polymerase chain reaction analyses.” for “was determined with an enzyme-linked immunosorbent assay.”, “**p<0.01 and *p<0.05” for “**p<0.01”\nMale homozygous eNOS-deficient mice were given a single intravenous injection of Urografin at a dose of 1.85 g iodine/kg body weight. The mice were deprived of water for 24 hours before the start of the experiment. Twenty micrograms of PACAP38 were given intraperitoneally 1 hour before the injection of Urografin and an additional dose was given 12 hours later. The control mice were injected intravenously with the same volume of saline as for the injections of Urografin and PACAP38 on the same schedule. The mice were euthanized 72 hours after the injection of Urografin. […]"}, "[5]": {"tested_on": "human renal proximal tubule epithelial cells (HK-2 human kidney cells)", "test": "Secretion of KIM-1 by HK-2 cells treated with Urografin or iohexol, ELISA of culture medium", "format": "cell-based", "conditions": "10^−6 M PACAP38, ELISA (FIG. 5)", "experimental": "The HK-2 human kidney cells were cultured in Keratinocyte-Serum Free Medium supplemented with recombinant epidermal growth factor and bovine pituitary extract. The effects of 10^−6 M PACAP38 on the excretion of KIM-1 were assessed by determining the concentration of KIM-1 in the culture medium with an enzyme-linked immunosorbent assay. Each value represents the mean plus/minus the standard error of three determinations. **p<0.01 and *p<0.05 compared to the cells treated only with Urografin.\nas §2"}, "PAC1 receptor": {"molecular_target": "T1, PAC1 receptor (Homo sapiens, UniProt P41586)", "T1 sequence (P41586 21-468)": "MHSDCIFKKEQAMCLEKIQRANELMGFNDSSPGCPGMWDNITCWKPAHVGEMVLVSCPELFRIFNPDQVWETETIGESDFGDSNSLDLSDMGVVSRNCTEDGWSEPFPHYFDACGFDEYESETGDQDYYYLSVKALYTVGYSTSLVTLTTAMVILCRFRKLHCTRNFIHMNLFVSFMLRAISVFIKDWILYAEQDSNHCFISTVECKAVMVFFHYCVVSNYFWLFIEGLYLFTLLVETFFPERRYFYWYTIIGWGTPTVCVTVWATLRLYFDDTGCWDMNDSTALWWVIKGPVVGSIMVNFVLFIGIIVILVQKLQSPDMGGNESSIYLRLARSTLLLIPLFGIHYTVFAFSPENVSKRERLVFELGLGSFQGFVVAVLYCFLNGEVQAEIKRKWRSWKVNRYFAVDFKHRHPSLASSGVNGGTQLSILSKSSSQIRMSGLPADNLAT", "conditions": "in words; cited from earlier work"}},
  "note": "Bridges are numbered along the chain shown (N, C = ends). Where no end group is shown, it is not given here.",
  "data": [
    {"molecule": "VIP (HSDAVFTDNYTRLRKQMAVKKYLNSILN-NH2; listed as Homo sapiens)", "values": [
      {"measurement": "loss of viable human renal proximal tubule epithelial cells caused by iohexol", "setting": "[1]; MTT (FIG. 4)", "value": "significant dose-dependent reduction"},
      {"measurement": "Urografin-induced cell death of human renal proximal tubule epithelial cells", "setting": "[2]; LDH in medium (FIG. 2)", "value": "significant dose-dependent reduction"}
    ]},
    {"molecule": "[^125I]-PACAP38: radioiodinated PACAP38 used in a cited rat half-life study", "values": [
      {"measurement": "half-life in the bloodstream", "setting": "[3]", "value": "5 to 6", "unit": "min"}
    ]},
    {"molecule": "PACAP38", "values": [
      {"measurement": "Urografin-induced increase in serum levels of cystatin C", "setting": "[4]; 20 μg i.p. 1 h before and 12 h after Urografin 1.85 g iodine/kg i.v., ELISA (FIG. 6)", "value": "reversed the increases"},
      {"measurement": "Urografin-induced increase in kidney levels of TNF-α protein", "setting": "[4]; 20 μg i.p. 1 h before and 12 h after Urografin, ELISA (FIG. 16)", "value": "reversed the increases"},
      {"measurement": "Urografin-induced increase in kidney levels of TGF-β1 protein", "setting": "[4]; 20 μg i.p. 1 h before and 12 h after Urografin, ELISA (FIG. 17)", "value": "reversed the increases"},
      {"measurement": "Urografin-induced increase in kidney levels of MCP-1 protein", "setting": "[4]; 20 μg i.p. 1 h before and 12 h after Urografin, ELISA (FIG. 18)", "value": "reversed the increases"},
      {"measurement": "Urografin-induced increase in kidney levels of IFN-γ protein", "setting": "[4]; 20 μg i.p. 1 h before and 12 h after Urografin, ELISA (FIG. 19)", "value": "reversed the increases"},
      {"measurement": "Urografin-induced increase in serum levels of creatinine", "setting": "[4]; 20 μg i.p. 1 h before and 12 h after Urografin, LC-MS/MS (FIG. 11)", "value": "reversed the increases"},
      {"measurement": "Urografin-induced increase in kidney levels of KIM-1 mRNA", "setting": "[4]; 20 μg i.p. 1 h before and 12 h after Urografin, real-time RT-PCR (FIG. 7)", "value": "reversed the increases"},
      {"measurement": "Urografin-induced increase in kidney levels of netrin-1 mRNA", "setting": "[4]; 20 μg i.p. 1 h before and 12 h after Urografin, real-time RT-PCR (FIG. 8)", "value": "reversed the increases"},
      {"measurement": "Urografin-induced increase in kidney levels of TNF-α mRNA", "setting": "[4]; 20 μg i.p. 1 h before and 12 h after Urografin, real-time RT-PCR (FIG. 9)", "value": "reversed the increases"},
      {"measurement": "Urografin-induced increase in kidney levels of iNOS mRNA", "setting": "[4]; 20 μg i.p. 1 h before and 12 h after Urografin, real-time RT-PCR (FIG. 10)", "value": "reversed the increases"},
      {"measurement": "Urografin-induced increase in kidney levels of Nogo-B1 mRNA", "setting": "[4]; 20 μg i.p. 1 h before and 12 h after Urografin, real-time RT-PCR (FIG. 12)", "value": "reversed the increases"},
      {"measurement": "Urografin-induced increase in kidney levels of TGF-β1 mRNA", "setting": "[4]; 20 μg i.p. 1 h before and 12 h after Urografin, real-time RT-PCR (FIG. 13)", "value": "reversed the increases"},
      {"measurement": "Urografin-induced increase in kidney levels of Nox-4 mRNA", "setting": "[4]; 20 μg i.p. 1 h before and 12 h after Urografin, real-time RT-PCR (FIG. 14)", "value": "reversed the increases"},
      {"measurement": "Urografin-induced increase in kidney levels of Nox-2 mRNA", "setting": "[4]; 20 μg i.p. 1 h before and 12 h after Urografin, real-time RT-PCR (FIG. 15)", "value": "reversed the increases"},
      {"measurement": "Urografin-induced secretion of KIM-1 into the medium", "setting": "[5]", "value": "significantly reduced"},
      {"measurement": "iohexol-induced secretion of KIM-1 into the medium", "setting": "[5]", "value": "significantly reduced"},
      {"measurement": "potency as renoprotectant against iohexol compared with VIP", "setting": "[1]; 10^−7 M and 10^−6 M (FIG. 4)", "value": "significantly more potent than VIP"},
      {"measurement": "loss of viable human renal proximal tubule epithelial cells caused by iohexol at the highest dose", "setting": "[1]; highest dose tested, MTT (FIG. 4)", "value": "almost completely prevented"},
      {"measurement": "loss of viable human renal proximal tubule epithelial cells caused by iohexol", "setting": "[1]; MTT (FIG. 4)", "value": "significant dose-dependent reduction"},
      {"measurement": "potency against Urografin-induced cell injury compared with VIP", "setting": "[2]; 10^−8 M (p<0.05), 10^−7 M (p<0.01) and 10^−6 M (p<0.01) (FIG. 2)", "value": "significantly more potent than VIP"},
      {"measurement": "reduction of the cell death caused by Urografin", "setting": "[2]; highest dose tested, HK-2 cells, LDH in medium (FIG. 2)", "value": "more than 70%"},
      {"measurement": "Urografin-induced cell death of human renal proximal tubule epithelial cells", "setting": "[2]; LDH in medium (FIG. 2)", "value": "significant dose-dependent reduction"}
    ]},
    {"molecule": "Maxadilan: 61-amino-acid peptide with two disulfide bridges from salivary glands of the sand fly Lutzomyia longipalpis; conformational analog of PACAP (peptide, listed as Lutzomyia longipalpis, disulfide 1-5; disulfide 14-51 (inferred), 61-amino-acid peptide with two disulfide bridges from salivary glands of the sand fly Lutzomyia longipalpis; conformational analog of PACAP) CDATCQFRKAIEDCRKKAHHSDVLQTSVQTTATFTSMDTSQLPGSGVFKECMKQKAKEFKA", "values": [
      {"measurement": "binding to the PAC1 receptor", "setting": "PAC1 receptor", "value": "high affinity"}
    ]}
  ]
}
